Here are results for two molecules from patent publication US6903104B2, “Indol-3-YL-2-oxoacetamide compounds and methods of use thereof” (National Health Research Institutes, priority 2001, dated 2005).

Structures are written as SMILES.

Test [1] deals with hepatocellular HEP G2 cancer cells. The experiment in a line: In vitro cytotoxicity MTS assay, hepatocellular HEP G2. The test is classed as cell-based, human. Particulars: 72 hours. How it is done: (§1) A panel of human cancer cells, gastric NUGC3 and HR, nasopharyngeal HONE1, hepatocellular HEP G2 and HA-22T, colorectal DLD1, lung A549, prostate PC3, breast MCF7 and its adriamycin-resistant MCF7/ADR subline, uterus MES-SA and its adriamycin-resistant MES-SA/Dx5 subline, is purchased from Food Industry Research and Development Institute, Hsinchu, Taiwan R.O.C. or American Type Culture Collection, Manassas, Va. U.S.A., are used in in vitro cytotoxicity assays. The human cells are seeded at a cell density of 3000 or 4500 cells/100 μl/well in 96-well flat-bottom plates and incubated for 24 hours at 37° C. in a 5% CO2 incubator. The testing compounds are dissolved in dimethyl sulfoxide (DMSO) and further diluted into the culture medium for treatments of human cancer cells in vitro. The drug-containing media has a final DMSO concentration of ≦0.3%. The compounds of this invention are prepared in culture media for testing at a range of concentrations from 10, 1, 0.1, 0.01 to 0.001 μM. Each compound solution is (200 μl/well in duplicate) in the cell plates and is treated for 72 hours at 37° C., 5% CO2 in an incubator. Actinomycin D at 5 μM and 0.3% DMSO are used as the positive and vehicle controls, respectively. A colorimetric assay using 3-(4,5-dimethylthiazol-2-yl)-5-(3-carboxymethoxyphenyl)-2-(4-sulfophenyl)-2H-tetrazolium (MTS) and phenazine methosulfate (PMS) is used to determine the potency of the compounds. This assay measures cell viability based on the cellular activity in conversion of a tetrazolium salt into a colored soluble formazan product. The optical density (OD) values are measured at 490 nm with a 1420 multilabel counter VICTOR® from Wallac, Turku, Finland. All of the measured values are subtracted with that of the blank control wells without cells before further calculations. The efficacy data are expressed as a percentage normalized to the vehicle controls as calculated in the following formulae. Inhibitory potency (% of vehicle control)=[(OD490compound−OD490blank)/(OD490vehicle−OD490blank)]×100%. The concentration (IC50) of a test compound that inhibits 50% of the cellular activity is determined.
A general note: Tetrazolium dyes change colour on reduction, which living cells bring about.

The subject of test [2] is gastric NUGC3 cancer cells. As to the kind of experiment: In vitro cytotoxicity MTS assay, gastric NUGC3. The test is classed as cell-based, human. Particulars: 72 hours. How it is done: as §1
The subject of test [3] is prostate PC3 cancer cells. As to the kind of experiment: In vitro cytotoxicity MTS assay, prostate PC3. The test is classed as cell-based, human. Particulars: 72 hours. On the procedure:
as §1

The subject of test [4] is adriamycin-resistant MES-SA/Dx5 subline. As to the kind of experiment: In vitro cytotoxicity MTS assay, adriamycin-resistant MES-SA/Dx5. The test is classed as cell-based, human. The note with it: 72 hours. How it is done:
as §1

In test [5] the test system is murine leukemic P388 cells. The experiment in a line: In vivo anticancer activity, murine leukemic P388 model. Further details: species or system DBA/2J mice. The note with it: P388-inoculated mice; for increase of life span: P.O., daily, 4×; for activity in the increase of life span (dose-response): oral. How it is done:
The in vivo anticancer activities of the compounds are evaluated by the following murine leukemic P388 model. Inbred female DBA/2J mice of 4-5 week-old were purchased from the Charles River Laboratories Inc., Wilmington, Mass., USA and the National Laboratory Animals Breeding and Research Center, Taipei, Taiwan, ROC. Murine leukemic P388 cells are purchased from the Japanese Collection of Research Bioresources, Japan. P388 cells are cultured and propagated in RPMI1640 medium supplemented with 50 μM 2-mercaptoethanol and 10% fetal bovine serum. Mice at the age of 6 weeks were grouped as the treatment, negative control and positive control groups at 7 to 8 mice per group. All mice are intravenously inoculated with the P388 cells at one million per mouse one day before the treatments initiated. Compounds of this invention are dissolved in dimethyl sulfoxide (DMSO) and then diluted in 0.5% carboxymethyl cellulose with the final concentration of DMSO less than 0.5%. Different treatment groups are orally given (P.O.), respectively, with compounds of different doses for a pharmacological dose-response relationship. Mice of the negative control group are treated with the dosing vehicle, 0.5% carboxymethyl cellulose. Doxorubicin of the maximal tolerated dose, 10 mg/kg, is given intravenously as an experimental positive control. The cancer cell-inoculated animals are monitored twice daily. The time on which 50% of the P388-inoculated mice is still surviving is defined as the medium survival time and is used to calculate the percentage (normalized to the medium survival time of the control group) of increased in life span after treatment, which is then served as the index of treatment response.

What is called IC50 is the concentration at which inhibition is half-maximal. High values mean lower potency, low ones higher potency. As for `Cc1cc(Cn2cc(C(=O)C(=O)Nc3cc(C)ns3)c3ccccc32)on1` [Compound 56], the IC50 came out at 93 nM in test [1], 12 nM in test [2], 628 nM in test [3] and 368 nM in test [4]. Further, the “increase of life span” value in test [5] (25 mg/kg) came to 26 ± 27%; in test [5] (50 mg/kg), 57 ± 20%; in test [5] (100 mg/kg) it was 63 ± 17%; in test [5] (200 mg/kg), 100 ± 21%. Also, the “activity in the increase of life span (dose-response)” value in test [5] was “dose-dependent activity”.
Turning to `Cc1cc(NC(=O)C(=O)c2cn(Cc3ccc(C#N)cc3)c3ccccc23)sn1` [Compound 25], the IC50 in test [1] turned out to be 1790 nM; in test [2], 514 nM; in test [3], 689 nM; in test [4], 398 nM. The “increase of life span” value in test [5] (25 mg/kg) is listed as 14 ± 1%; in test [5] (50 mg/kg), 27 ± 3%; in test [5] (100 mg/kg) it was 20 ± 8%; in test [5] (200 mg/kg), 46 ± 24%. Also, the “activity in the increase of life span (dose-response)” value in test [5] is recorded as “dose-dependent activity”.
